Results from PubChem BioAssay (NCI).
Values joined by “and” are separate entries in the source; they are usually repeats but may differ in a detail not shown here. Equal values may be shown once.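 Results reflect a 48-hour exposure of cells in 96-well plates to compound at five concentrations. GI50 = concentration required for 50% inhibition of growth. TGI: total growth inhibition.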

Tests used:
Assay in all cases: DTP human tumour cell line panel, 48 h
[1] = tested on: HS 578T breast
[2] = tested on: SF-295 CNS
[3] = tested on: MALME-3M melanoma
[4] = tested on: A498 renal
[5] = tested on: BT-549 breast
[6] = tested on: PC-3 prostate
[7] = tested on: A549 NSCLC

| Compound | GI50 [1] | TGI [1] [µM] | GI50 [2] [µM] | TGI [2] [µM] | GI50 [3] [µM] | TGI [3] [µM] | GI50 [4] [µM] | TGI [4] [µM] | GI50 [5] [µM] | TGI [5] [µM] | GI50 [6] | TGI [6] | GI50 [7] | TGI [7] |
| --- | --- | --- | --- | --- | --- | --- | --- | --- | --- | --- | --- | --- | --- | --- |
| COc1cc2c3c(n(CCCN4CCC(N)CC4)c(=O)c2cc1OC)-c1cc2c(cc1C3=O)OCO2 | 1.69 µM | 11.7 | 0.479 | 1.36 | 2.09 | 9.89 | 3.03 | 10.8 | 2.41 | 9.84 | 0.302 µM | 2.11 µM | 0.278 µM | 0.927 µM |
| Cc1c(C(=O)NN)nnn1-c1ccnc2c(C(F)(F)F)cccc12 | > 100 µM | > 100 | > 100 | > 100 | – | – | > 100 | > 100 | > 100 | > 100 | > 100 µM | > 100 µM | > 100 µM | > 100 µM |
| NCCN1CCN(c2nccc(-c3ccc4ccccc4c3)n2)CC1 | 1.73 µM | 4.37 | 1.68 | 3.34 | 1.83 | 3.52 | 1.59 | 3.3 | 4.89 | 18.2 | 1.86 µM | 4.36 µM | 1.86 µM | 3.43 µM |
| C=C(C)[C@@H]1CC[C@@]2(C(=O)O)CC[C@]3(C)C(CCC4[C@@]5(C)CCC(OS(=O)(=O)c6ccccc6)C(C)(C)C5CC[C@]43C)C12 (stereo partly drawn) | 8 µM | 42.4 | 1.93 | 11.8 | 12.2 | 26 | 4.68 | 20.6 | 3.17 | 18.7 | 1.5 µM | 35.8 µM | 2.44 µM | 17.7 µM |
| O=C(N/N=C/c1ccc(Cl)cc1Cl)c1ccccc1Nc1cccc(C(F)(F)F)c1 | 4.1 µM | 44.5 | 2.55 | 8.8 | 2.62 | 10.5 | 14.9 | 52.4 | 3.84 | 32.5 | 2.4 µM | 8.82 µM | 2.31 µM | 6.18 µM |
| FC(F)(F)c1ccc2c(Nc3cccc(C4CC(c5ccccc5)=NN4c4ccc(Cl)cc4)c3)ccnc2c1 (stereo not drawn) | 4.43 µM | 43.2 | 2.25 | 8.67 | 4.38 | 21 | 9.9 | 45.6 | 2.29 | 7.4 | 3.77 µM | 16.6 µM | 10.7 µM | 44.8 µM |
| COc1cc(-c2cn(C)c(=O)c(C)c2C)cc(OC)c1CN1CC[C@H](N2CCN(c3ccc(N[C@H]4CCC(=O)NC4=O)cc3F)CC2)C(F)(F)C1 | 4 µM | 38.5 | 11.9 | 25.5 | 15 | 30.1 | 13.8 | 27.2 | 12.6 | 28.3 | 11 µM | 47.1 µM | 12.3 µM | 31.1 µM |
| Clc1ccc(OCc2nnc3n2N=C(c2ccc(Cl)cc2Cl)CS3)c(Cl)c1 | 29.6 µM | > 100 | 23.9 | 79.7 | 23.8 | 79.7 | – | – | 22.4 | 59.4 | 29.5 µM | > 100 µM | 28.8 µM | 95.8 µM |
| CCn1c(-c2nonc2N)nc2ccc(F)cc21 | > 25 µM | > 25 | > 25 | > 25 | > 25 | > 25 | 13.6 | > 25 | > 25 | > 25 | > 25 µM | > 25 µM | > 25 µM | > 25 µM |
| O=P(O)(O)C(O)(Cn1ccnc1)P(=O)(O)O | 4.67 µM | > 45.5 | > 100 | > 100 | > 54.1 | > 100 | > 62.8 | > 100 | > 34.4 | > 100 | > 59.8 µM | > 100 µM | > 95.7 µM | > 100 µM |
| CCCNCc1cc(C)cc2c1nc(N1CCNCC1)n2Cc1cc(C)c(F)c(C)c1 | 2.56 µM | 11.6 | 1.79 | 3.57 | 1.86 | 3.53 | – | – | 12.3 | 26.1 | 2.49 µM | 7.66 µM | 4.54 µM | 17.1 µM |
| CC(=O)O[C@H]1C(=O)[C@@]2(C)[C@H]([C@H](OC(=O)c3ccccc3)[C@]3([O-])C[C@H](OC(=O)[C@H]([O-])[C@@H](NC(=O)c4ccccc4)c4ccccc4)C(C)=C1C3(C)C)[C@]1(OC(C)=O)CO[C@@H]1C[C@@H]2[O-].[Fe+3] | 0.0562 µM and 0.141 µM | – | 0.0836 | > 100 | – | – | – | – | 0.309 | – | 0.235 µM and 0.219 µM | 65 µM and > 100 µM | 0.0335 µM and 0.0852 µM | 65 µM and > 100 µM |
| Cc1ccc2/c(=C/c3ccc(N(C)C)cc3)c3cc(-c4ccccc4)[n+](C)n3c2c1 | 0.035 µM | 2.89 | 0.352 | 3.31 | 0.0285 | 1.17 | – | – | – | – | 0.0251 µM | 3.9 µM | 0.0987 µM | > 100 µM |
| Cc1ccsc1C(=S)Nc1ccc(Cl)c(C(=O)OC(C(C)C)C(C)C)c1 | – | > 100 | – | > 100 | – | – | – | > 100 | – | 61.4 | – | 61.8 µM | – | > 100 µM |
| COC(=O)C(Cc1ccccc1)N/C=C\C(=O)c1ccc(Cl)cc1 (stereo not drawn) | 25 µM | 63.8 | 14.8 | 35.8 | – | – | 31.1 | 75.8 | 28.1 | > 100 | 18.8 µM | 45 µM | 50.1 µM | > 100 µM |
| C[C@H]1CCC/C=C/[C@@H]2C[C@H](N)C[C@H]2[C@H](O)/C=C/C(=O)O1 | > 100 µM | > 100 | > 100 | > 100 | 52.8 | > 100 | 67.9 | > 100 | – | – | > 100 µM | > 100 µM | > 100 µM | > 100 µM |
| COc1ccc(-c2cc(-c3cc(Cl)ccc3Cl)nc3nc(=S)[nH]c(N)c23)cc1 | 14.6 µM | 74.8 | 17.1 | 46.5 | – | – | – | – | 54.9 | > 100 | 24.8 µM | > 100 µM | 15.2 µM | 41.8 µM |
| C=C1CC(COc2cc(Cl)nc(N)n2)C1 | 49.9 µM | – | 34.4 | – | 93.3 | – | 28.4 | 96.8 | 20.6 | – | – | – | 33.9 µM | – |
| CCCSc1cc(Cl)nc(N)n1 | – | – | > 100 | > 100 | > 100 | > 100 | > 100 | > 100 | 65.1 | > 100 | > 100 µM | > 100 µM | > 100 µM | > 100 µM |
| O=C1c2ccccc2-c2c1c1ccccc1c(=O)n2CCNCCCNCCn1c2c(c3ccccc3c1=O)C(=O)c1ccccc1-2 | 0.738 µM | 2.74 | 0.00771 | 0.368 | – | – | 0.432 | 3.33 | 0.629 | 1.9 | 0.293 µM | 1.24 µM | 0.0521 µM | 0.662 µM |
| C=CCOc1c(Br)cc(Br)cc1Br | 17.8 µM | > 100 | 2.71 | 9.53 | – | – | 8.49 | > 100 | 35.5 | > 100 | 68 µM | > 100 µM | 45.8 µM | > 100 µM |
| Cn1c(N)nc2c(nc(OCc3ccccc3)n2C2OC(CO)C(O)C2O)c1=O (stereo not drawn) | – | > 100 | – | > 100 | – | > 100 | – | > 100 | – | – | – | > 100 µM | – | > 100 µM |
| CC(=O)n1c(-c2ccc(Cl)cc2)nc2c(c1=O)C(c1ccc(Cl)cc1)c1sc3c(Cl)cccc3c1O2 (stereo not drawn) | 0.396 µM | 3.23 | 0.31 | 1.24 | 0.669 | 2.5 | – | – | 0.373 | 1.89 | 0.37 µM | 2.69 µM | 0.835 µM | 2.32 µM |
| CN(C)c1nc(-c2cccs2)n2nc(-c3ccc(Cl)cc3)cc2n1 | 3.11 µM | > 100 | 2.49 | > 100 | – | – | – | – | 62.8 | > 100 | – | – | – | – |
| COc1ccccc1C(=O)c1ccc2ccccc2c1 | – | 39.1 | – | 79.8 | – | 42.6 | – | – | – | 52.7 | – | > 100 µM | – | > 100 µM |
| CCCS(=O)(=O)c1nc(NC2CC2)cc(-c2ccc3c(ccn3C3CC(C)(C)NC(C)(C)C3)c2)n1 | 2.1 µM | 4.93 | 1.82 | 3.47 | – | – | 1.81 | 3.37 | – | – | 1.78 µM | 3.47 µM | – | – |
| COC(=O)NC/C=C\c1nc(CC/C=C\C(=O)OC2CC3CC(=O)O[C@@H](/C=C/CC(C)C)C[C@@H]4CCC(C)C(C[C@@H](OC)CC(C2)O3)O4)co1 (stereo partly drawn) | 32.8 µM | > 100 | < 0.01 | 73.8 | 25.5 | 93.4 | – | – | 9.93 | > 100 | < 0.01 µM | > 100 µM | – | – |
| COc1ccc2c(c1)C=CC(C#N)N2C(=O)c1ccccc1 (stereo not drawn) | < 0.01 µM | > 100 | < 0.01 | > 100 | – | – | < 0.01 | 0.0825 | – | > 67.5 | < 0.01 µM | > 100 µM | < 0.01 µM | > 100 µM |
